Data set [1] can be described thus: in vivo. The note with it: Sprague-Dawley, rat, t1/2.
The nature of data set [2]: in vivo. Conditions: Sprague-Dawley, rat, po, 10 mg/kg, F.
Data set [3] is described as follows: in vivo. Conditions: Sprague-Dawley, rat, iv, 2 mg/kg.
The nature of data set [4]: in vivo. Conditions: mongrel, dog, iv, 0.25 mg/kg, t1/2.
A further data set is filed under the species Canis familiaris. The note with it: dog, in vivo, iv, 0.25 mg/kg.
Another data set deals with human MDR1 (P-gp). The data set is described as follows: (§1) Apparent permeability in pig LLC-PK1 cells transfected with human MDR1. The class given is ADME, cell-based, Sus scrofa. The note with it: LLC-PK1.
For data set [5], the species on record is Rattus norvegicus. Conditions: in vivo, po, 10 mg/kg.
Data set [6] can be described thus: in vivo. Conditions: mongrel, dog, iv, 0.25 mg/kg, CL.
Data set [7] is filed under the species Rattus norvegicus. The note with it: in vivo.
The test system of a further data set is LLC-PK1. The description is as §1. The class given is ADME, cell-based, Sus scrofa. Conditions: llc-pk1.
The nature of data set [8]: Metabolic stability in human liver microsomes after 30 mins. The class given is ADME, Microsome. Conditions: read-out: Stability. For orientation: Liver microsomes are a subcellular fraction often used to study metabolism.
Data set [9] can be described thus: Metabolic stability in Beagle dog liver microsomes after 30 mins. The class given is ADME, Canis lupus familiaris, Microsome. The note with it: read-out: Stability.
A short description of data set [10]: Metabolic stability in Sprague-Dawley rat liver microsomes after 30 mins. Type of data set: ADME, Microsome. Conditions: read-out: Stability.
A short description of data set [11]: Metabolic stability in monkey liver microsomes after 30 mins. Type of data set: ADME, Macaca mulatta, Microsome. Conditions: rhesus monkey, read-out: Stability.
Data set [12] deals with Brain. Kind of data set: Drug level in transgenic rat brain at 12 mg/kg, iv. Type of data set: ADME, organism-based. Also on record: dose 12 mg/kg, route intravenous. Conditions: in vivo.
Data set [13] deals with Plasma. Kind of data set: Drug level in transgenic rat plasma at 0.12 mg/kg, iv. Type of data set: ADME, organism-based. Set-up: dose 0.12 mg/kg, route intravenous. The note with it: in vivo.
Data set [14] has as its system Spinal cord. The data set is described as follows: Drug level in transgenic rat spinal cord at 12 mg/kg, iv. The class given is ADME, organism-based. Set-up: dose 12 mg/kg, route intravenous. The note with it: in vivo.
Data set [15] deals with Brain. Kind of data set: Drug level in transgenic rat brain at 0.12 mg/kg, iv. The class given is ADME, organism-based. Set-up: dose 0.12 mg/kg, route intravenous. Conditions: in vivo.
In data set [16] the test system is Spinal cord. Kind of data set: Drug level in transgenic rat spinal cord at 1.2 mg/kg, iv. Type of data set: ADME, organism-based. Set-up: dose 1.2 mg/kg, route intravenous. The note with it: in vivo.
The test system of data set [17] is Spinal cord. Kind of data set: Drug level in transgenic rat spinal cord at 0.12 mg/kg, iv. Type of data set: ADME, organism-based. The note with it: in vivo. Also on record: dose 0.12 mg/kg, route intravenous.
The subject of data set [18] is Brain. Kind of data set: Drug level in transgenic rat brain at 1.2 mg/kg, iv. The class given is ADME, organism-based. Set-up: dose 1.2 mg/kg, route intravenous. The note with it: in vivo.
Data set [19] concerns Plasma. Kind of data set: Drug level in transgenic rat plasma at 1.2 mg/kg, iv. Also on record: dose 1.2 mg/kg, route intravenous. The note with it: in vivo. The class given is ADME, organism-based.
For data set [20], the system named is Plasma. Kind of data set: Drug level in transgenic rat plasma at 12 mg/kg, iv. The class given is ADME, organism-based. Also on record: dose 12 mg/kg, route intravenous. Conditions: in vivo.

A value given as a limit tells only on which side of the number the result lay.

Regarding `O=C(Nc1ccc(S(=O)(=O)Nc2ccccc2C(=O)c2ccc(F)cn2)cc1)OCC1CCCO1` (stereo in doubt; 32), the figures for the half-life in “in vivo [1]” and in “in vivo [4]” were 1.1 h and 2.8 h, respectively. Besides, in “in vivo [2]”, the bioavailability (in general, the share of a dose that reaches the circulation, judged against a reference dose that is usually intravenous) was < 1%. The clearance – broadly, the rate of elimination divided by the concentration – in “in vivo [3]” amounted to 26 mL/min/kg.

`O=C(Nc1ccc(S(=O)(=O)Nc2ccccc2C(=O)c2ccccn2)cc1)OCC1CCCO1` (stereo in doubt; 28) had a t1/2 in the data set filed under Canis familiaris of 2.6 h.

`O=C(Nc1ccc(S(=O)(=O)Nc2ccccc2C(=O)c2ccc(F)cn2)cc1)OCC1CCCO1` (stereo in doubt; 30): the t1/2 in the data set filed under Canis familiaris turned out to be 1.8 h. Moreover, the Papp (usually a coefficient for how fast a substance crosses the barrier) in the data set with human MDR1 (P-gp) came out at 26 ×10⁻⁶ cm/s.

For the compound `O=C(Nc1ccc(S(=O)(=O)Nc2ccccc2C(=O)c2ccccn2)cc1)OCC1CCCO1` (stereo in doubt; 29), the half-life (usually how long it takes for the measured level to halve) in the data set “in vivo [1]” was 1.7 h; in “in vivo [4]”, 2.2 h. Besides, the F in the data set filed under Rattus norvegicus [5] is listed as 3%. Moreover, the figures for the clearance in the data set “in vivo [6]” and in the data set “in vivo [3]” were 2.9 mL/min/kg and 40 mL/min/kg, respectively. The Papp with human MDR1 (P-gp) was 33 ×10⁻⁶ cm/s.

Take `O=C(Nc1ccc(S(=O)(=O)Nc2ccccc2C(=O)c2ccccn2)cc1)OCC1CCCO1` (racemic): the F in the data set listed under Rattus norvegicus [5] worked out at 17%. Further, the t1/2 in the data set listed under Rattus norvegicus [7] and in the data set listed under Canis familiaris was 1.4 h each time. Also, the Papp in the data set with LLC-PK1 was 31 ×10⁻⁶ cm/s.

`CC(=O)Nc1ccc(S(=O)(=O)Nc2ccccc2C(=O)c2ccccn2)cc1`: the half-life in “in vivo [1]” and in “in vivo [4]” was 1.2 h each time. In the data set “in vivo [2]”, this compound registered a bioavailability of 11%. For the same compound, the results for the clearance in the data set “in vivo [6]” and in “in vivo [3]” were 1.2 mL/min/kg and 24 mL/min/kg, respectively.

Compound `CC(=O)Nc1ccc(S(=O)(=O)Nc2ccccc2C(=O)c2ccccc2)cc1` yielded a bioavailability in “in vivo [2]” of 3%. Further, the remaining at 0.5 h in data set [8], in data set [9], in data set [10] and in data set [11] was < 10% in each case. Further, in the data set filed under Rattus norvegicus [7], the t1/2 was determined as 0.3 h. In addition, the clearance in “in vivo [6]” worked out at 7.5 mL/min/kg; in “in vivo [3]” it was 26 mL/min/kg. Moreover, in the data set with human MDR1 (P-gp), the Papp was determined as 27 ×10⁻⁶ cm/s. In addition, the half-life in “in vivo [4]” is 0.5 h.

With `O=C(NCCCN1CCCCC1)Nc1ccc(S(=O)(=O)Nc2ccccc2C(=O)c2ccccc2)cc1`, in the data set “in vivo [2]”, the bioavailability worked out at 41%. The compound further showed a t1/2 in the data set listed under Rattus norvegicus [7] of 14 h. Also, the clearance in “in vivo [6]” came to 17 mL/min/kg; in the data set “in vivo [3]”, 29 mL/min/kg. The Papp with human MDR1 (P-gp) worked out at 34 ×10⁻⁶ cm/s. Besides, the half-life in “in vivo [4]” is 1.5 h.

Consider `O=C(Nc1ccc(S(=O)(=O)Nc2ccccc2C(=O)c2ccccc2)cc1)OCC1CCCO1` (stereo not drawn), for which the concentration with Brain [12] amounted to 5840 nM; in the data set with Plasma [13] it was 80 nM; with Spinal cord [14] it was 9430 nM; with Brain [15], 70 nM; with Spinal cord [16], 597 nM; in the data set on Spinal cord [17] it was 97 nM. For the same compound, the concentration is 438 nM in the data set on Brain [18], 995 nM with Plasma [19] and 13200 nM with Plasma [20]. Besides, in “in vivo [2]”, the bioavailability came out at 3%. In the data set filed under Rattus norvegicus [7], this compound had a t1/2 of 9.7 h. Further, the clearance came to 17 mL/min/kg in the data set “in vivo [6]” and 43 mL/min/kg in “in vivo [3]”. Moreover, the Papp in the data set with human MDR1 (P-gp) came to 26 ×10⁻⁶ cm/s. The compound also had a half-life in the data set “in vivo [4]” of 1.9 h.

The record behind these values is ChEMBL document CHEMBL1157535, “2-Aminobenzophenones as a novel class of bradykinin B1 receptor antagonists” (J Med Chem, 2008).
